Measured values from patent US8609719B2, “Propargylated aminoindans, processes for preparation, and uses thereof” (priority 2006, dated 2013).
Counter-ions that a name gives are not always drawn. Like-named read-outs stand apart in the source and are kept apart here.

Experiments:
[1] = biological target: T1, MAO-A (Rattus norvegicus, UniProt P21396); experiment: Inhibition of MAO activity in vitro (5-HT substrate); format: biochemical
T1 construct: from tissue; host or cells: brain, liver and intestine (duodenum) of dosed rats
T1 sequence (P21396 1-526): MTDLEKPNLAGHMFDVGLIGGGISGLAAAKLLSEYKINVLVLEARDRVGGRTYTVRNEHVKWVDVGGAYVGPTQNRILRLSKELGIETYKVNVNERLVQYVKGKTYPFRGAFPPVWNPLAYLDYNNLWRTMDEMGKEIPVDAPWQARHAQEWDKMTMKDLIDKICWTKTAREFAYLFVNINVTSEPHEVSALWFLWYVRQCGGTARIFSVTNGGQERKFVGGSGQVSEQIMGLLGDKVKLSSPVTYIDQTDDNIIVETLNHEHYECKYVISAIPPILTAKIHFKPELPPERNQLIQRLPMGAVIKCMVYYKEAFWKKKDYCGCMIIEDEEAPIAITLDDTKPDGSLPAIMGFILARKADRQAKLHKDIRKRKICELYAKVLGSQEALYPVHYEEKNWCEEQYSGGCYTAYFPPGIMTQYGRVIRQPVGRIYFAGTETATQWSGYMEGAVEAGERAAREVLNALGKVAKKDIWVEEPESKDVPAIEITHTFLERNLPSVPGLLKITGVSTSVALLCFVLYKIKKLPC
Protocol: The MAO enzyme source was a homogenate of rat brain in 0.3M sucrose. The homogenate was diluted appropriately, and pre-incubated with serial dilutions of test compounds—diluted in phosphate buffer containing clogyline when 2-phenylethylamine (PEA) is the substrate, and diluted in phosphate buffer containing selegiline when 5-hydroxytryptamine (5-HT) is the substrate—for 60 minutes at 37° C. 14C-Labeled substrates (PEA for MAO-B determination and 5-HT for MAO-A determination) were then added, and the incubation continued for a further 20 minutes (PEA) or 30 minutes (5-HT). Substrate concentrations used were 10 μM (PEA) and 100 uM (5-HT). Enzyme concentration was chosen so that not more than 10% of the substrate was metabolized during the course of the reaction. Deaminated products were extracted into toluene-ethyl acetate (1:1 v/v) containing 0.4% (w/v) 2,5-diphenyloxazole (ppo) prior to determination by liquid scintillation counting. Radioactivity in the eluate indicated the production of neutral and acidic metabolites formed as a result of MAO activity. Activity of MAO in the sample was expressed as a percentage of control activity in the absence of inhibitor after subtraction of appropriate blank values. The activity determined using PEA as substrate is referred to as MAO-B, and that determined using 5-HT as MAO-A.
Concentrations of each inhibitor producing 50% inhibition of substrate metabolism (IC50) were calculated from the inhibition curves, and are shown in Table 1.

[2] = biological target: T2, BuChE from human serum (Homo sapiens, UniProt P06276); experiment: Inhibition of butyrylcholinesterase activity in vitro (Ellman, stopped time assay); format: biochemical; design: ki (bimolecular rate constant): unit not given here
T2 construct: BuChE from human serum (C-9971); purchased Sigma-Aldrich Israel C-9971; host or cells: purified from human serum
T2 sequence (P06276 29-602): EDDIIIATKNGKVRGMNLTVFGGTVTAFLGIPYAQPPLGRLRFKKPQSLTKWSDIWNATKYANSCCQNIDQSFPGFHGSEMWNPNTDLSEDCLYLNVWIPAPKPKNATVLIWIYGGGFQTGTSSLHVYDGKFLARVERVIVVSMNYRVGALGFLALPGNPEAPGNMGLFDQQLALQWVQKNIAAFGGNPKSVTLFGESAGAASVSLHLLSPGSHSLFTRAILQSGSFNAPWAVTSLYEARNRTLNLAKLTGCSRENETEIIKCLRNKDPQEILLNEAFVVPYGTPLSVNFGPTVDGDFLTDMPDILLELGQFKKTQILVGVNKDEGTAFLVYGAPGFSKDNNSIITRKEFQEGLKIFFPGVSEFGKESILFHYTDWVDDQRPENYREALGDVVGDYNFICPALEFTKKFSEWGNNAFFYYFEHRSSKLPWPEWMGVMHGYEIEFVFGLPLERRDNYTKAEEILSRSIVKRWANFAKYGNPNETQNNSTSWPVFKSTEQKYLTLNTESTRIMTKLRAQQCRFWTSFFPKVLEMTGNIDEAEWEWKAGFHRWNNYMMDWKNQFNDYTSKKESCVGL
Protocol: BuChE from human serum (C-9971), butyrylthiocholine iodide (BuTh, B3253), bovine serum albumin (BSA, A-2153) 5,5′-dithiobis(2-nitrobenzoic acid) (DTNB, D8130) were obtained from Sigma-Aldrich Israel. BuChE was dissolved in phosphate buffer pH 8.0 containing 0.01% sodium azide (NaAz) and 1 mM EDTA and diluted to give a concentration of 35.9 units/ml. This solution was divided into aliquots of 0.5 ml, which were stored at −70° C. until use.
The inhibitory activity against BuChE was determined by the method of Ellmann et al. (Biochemical Pharmacology, 1961 (7) 88-95) using BuTh as a substrate. To characterize the carbamoylation step, a traditional stopped time assay was performed, in which BuChE was incubated at 37° C. with a minimum of 5 different concentrations of inhibitor in the assay buffer, and aliquots were transferred to an ELISA multiscan microplate reader (Labsystems) at various times for the determination of residual BuChE activity, with Ascent PC® software. The rate of reaction was measured at 412λ at 37° C. in 0.2 ml wells containing […] 0.023 units per ml, DTNB 0.4-0.5 mM, AcTh 0.50 or 1 mM and BSA (0.05%) in 50 mM phosphate buffer as described above. For all compounds measurements were made every 2 min for 15 min and then every 15 min for 3 hr.
The inhibition of BuChE by carbamates involves the formation of a reversible complex (EOH•CX), followed by carbamoylation of the enzyme to form (EOC) and a leaving group (HX). The carbamoylated enzyme is then hydrolyzed by water to regenerate the free enzyme (EOH). The formation of the reversible complex is represented by the equilibrium constant: KD. For the carbamoylation phase of the inhibition process the unimolecular rate constant is represented by kmax, and the bimolecular rate constant by ki.

[3] = Pharmacokinetic analysis of ladostigil and metabolites in Alzheimer's disease patients; details: human, in vivo, 100 mg; for Cmax / AUC / AUC(0-t): after ladostigil tartrate 100 mg twice daily; for concentration at 12 h: mean concentration at pre-dose, 12 hours after the previous dose of ladostigil tartrate; for AUC: AUC (M)
[4] = both, Cmax (M), mean, mean of patients, maintenance analysis Week 4
[5] = both, Cmax (T), mean, mean of patients, termination analysis Week 9
[6] = both, Cmin (M), mean of patients, maintenance analysis Week 4
[7] = both, Cmin (T), mean of patients, termination analysis Week 9
[8] = Patient 1, maintenance analysis Week 4
[9] = Patient 2, maintenance analysis Week 4
[10] = Patient 3, maintenance analysis Week 4
[11] = Patient 4, maintenance analysis Week 4
[12] = Patient 5, maintenance analysis Week 4
[13] = Patient 6, maintenance analysis Week 4
[14] = Patient 7, maintenance analysis Week 4
[15] = Patient 8, maintenance analysis Week 4
[16] = Patient 1, termination analysis Week 9
[17] = Patient 2, termination analysis Week 9
[18] = Patient 3, termination analysis Week 9
[19] = Patient 4, termination analysis Week 9
[20] = Patient 5, termination analysis Week 9
[21] = Patient 6, termination analysis Week 9
[22] = Patient 7, termination analysis Week 9
[23] = Patient 8, termination analysis Week 9
[24] = Cmax (M), Patient 1, maintenance analysis Week 4
[25] = Cmax (M), Patient 2, maintenance analysis Week 4
[26] = Cmax (M), Patient 3, maintenance analysis Week 4
[27] = Cmax (M), Patient 4, maintenance analysis Week 4
[28] = Cmax (M), Patient 5, maintenance analysis Week 4
[29] = Cmax (M), Patient 6, maintenance analysis Week 4
[30] = Cmax (M), Patient 7, maintenance analysis Week 4
[31] = Cmax (M), Patient 8, maintenance analysis Week 4
[32] = Cmax (T), Patient 1, termination analysis Week 9
[33] = Cmax (T), Patient 2, termination analysis Week 9
[34] = Cmax (T), Patient 3, termination analysis Week 9
[35] = Cmax (T), Patient 4, termination analysis Week 9
[36] = Cmax (T), Patient 5, termination analysis Week 9
[37] = Cmax (T), Patient 6, termination analysis Week 9
[38] = Cmax (T), Patient 7, termination analysis Week 9
[39] = Cmax (T), Patient 8, termination analysis Week 9

C#CCN[C@@H]1CCc2ccc(OC(=O)N(CC)CO)cc21 [R-HCPAI, Ethyl-hydroxymethyl-carbamic acid 3-R-(prop-2-ynylamino)-indan-5-yl ester fumarate (2:1)]
IC50 ([1]; rat brain homogenate, 5-HT 100 uM, 60 minutes pre-incubation at 37° C., read-out: IC50 for MAO-A inhibition): 414 µM
inhibition of butyrylcholinesterase, in words [2]: weak inhibitor
ki (bimolecular rate constant) ([2]; BuChE, 37° C.): 0.936 ± 0.06
kmax (unimolecular carbamoylation rate constant) ([2]; BuChE, 37° C.): 0.104 ± 0.043 min⁻¹
Kd ([2]; BuChE, 37° C., read-out: KD (equilibrium constant of reversible complex)): 111 ± 50 µM
half-life ([3]; both): 1.03 h
Cmax [3, 4]: 3.63e-06 M
Cmax [3, 5]: 3.3e-06 M
concentration at 12 h [3, 6]: 2.32e-08 M
concentration at 12 h [3, 7]: 1.37e-08 M
AUC [3, 8]: 1660 ng·h/mL
AUC [3, 9]: 600 ng·h/mL
AUC [3, 10]: 2290 ng·h/mL
AUC [3, 11]: 2150 ng·h/mL
AUC [3, 12]: 1700 ng·h/mL
AUC [3, 13]: 1890 ng·h/mL
AUC [3, 14]: 519 ng·h/mL
AUC [3, 15]: 1510 ng·h/mL
AUC(0-t) [3, 16]: 1300 ng·h/mL
AUC(0-t) [3, 17]: 3100 ng·h/mL
AUC(0-t) [3, 18]: 2520 ng·h/mL
AUC(0-t) [3, 19]: 1740 ng·h/mL
AUC(0-t) [3, 20]: 1650 ng·h/mL
AUC(0-t) [3, 21]: 2400 ng·h/mL
AUC(0-t) [3, 22]: 1040 ng·h/mL
AUC(0-t) [3, 23]: 1340 ng·h/mL
Cmax [3, 24]: 3.6e-06 M
Cmax [3, 25]: 1.5e-06 M
Cmax [3, 26]: 3.7e-06 M
Cmax [3, 27]: 7e-06 M
Cmax [3, 28]: 4.7e-06 M
Cmax [3, 29]: 4e-06 M
Cmax [3, 30]: 1.2e-06 M
Cmax [3, 31]: 3.3e-06 M
Cmax [3, 32]: 3.2e-06 M
Cmax [3, 33]: 3.9e-06 M
Cmax [3, 34]: 3.9e-06 M
Cmax [3, 35]: 3.9e-06 M
Cmax [3, 36]: 3.7e-06 M
Cmax [3, 37]: 3.2e-06 M
Cmax [3, 38]: 2.1e-06 M
Cmax [3, 39]: 2.6e-06 M

C#CCN[C@@H]1CCc2ccc(OC(=O)NC)cc21 [R-MCPAI, Methyl-carbamic acid 3-R-(prop-2-ynylamino)-indan-5-yl ester hydrochloride]
IC50 [1]: 37 µM
Kd [2]: 21 ± 2 µM
inhibition of butyrylcholinesterase, in words [2]: potent inhibitors
ki (bimolecular rate constant) ([2]; BuChE, 37° C.): 31.3 ± 2.0
kmax (unimolecular carbamoylation rate constant) ([2]; BuChE, 37° C.): 0.65 ± 0.03 min⁻¹
half-life ([3]; both): 1.39 h
Cmax [3, 4]: 1.29e-06 M
Cmax [3, 5]: 1.07e-06 M
concentration at 12 h [3, 6]: 1.74e-08 M
concentration at 12 h [3, 7]: 1.32e-08 M
AUC [3, 8]: 684 ng·h/mL
AUC [3, 9]: 103 ng·h/mL
AUC [3, 10]: 596 ng·h/mL
AUC [3, 11]: 764 ng·h/mL
AUC [3, 12]: 491 ng·h/mL
AUC [3, 13]: 630 ng·h/mL
AUC [3, 14]: 212 ng·h/mL
AUC [3, 15]: 304 ng·h/mL
AUC(0-t) [3, 16]: 493 ng·h/mL
AUC(0-t) [3, 17]: 789 ng·h/mL
AUC(0-t) [3, 18]: 621 ng·h/mL
AUC(0-t) [3, 19]: 487 ng·h/mL
AUC(0-t) [3, 20]: 551 ng·h/mL
AUC(0-t) [3, 21]: 947 ng·h/mL
AUC(0-t) [3, 22]: 584 ng·h/mL
AUC(0-t) [3, 23]: 343 ng·h/mL
Cmax [3, 24]: 1.8e-06 M
Cmax [3, 25]: 3e-07 M
Cmax [3, 26]: 1.2e-06 M
Cmax [3, 27]: 3e-06 M
Cmax [3, 28]: 1.5e-06 M
Cmax [3, 29]: 1.3e-06 M
Cmax [3, 30]: 5e-07 M
Cmax [3, 31]: 7e-07 M
Cmax [3, 32]: 1.3e-06 M
Cmax [3, 33]: 1e-06 M
Cmax [3, 34]: 1e-06 M
Cmax [3, 35]: 1.1e-06 M
Cmax [3, 36]: 1.3e-06 M
Cmax [3, 37]: 1.3e-06 M
Cmax [3, 38]: 1e-06 M
Cmax [3, 39]: 6e-07 M
